Columns and labels:
kikuyugrass = experiment: Turfgrass injury trial on kikuyugrass; type: in vivo
Excerpt: In a kikuyugrass trial, trifloxysulfuron (TSS) (Monument 75 WDG) was applied solo at 28 g ai/ha and compared to a mixture of TSS and metcamifen (MET). The TSS-MET mixture contains trifloxysulfuron and meticamifen at a ratio of 20 to 75 g. Both Monument and the TSS-MET mixture were applied at 28 g ai/ha TSS.

[1] = tested on: St Augustinegrass variety 'Classic'; experiment: Turfgrass injury trial on St Augustinegrass variety 'Classic'; type: in vivo
Excerpt: In a trial conducted on St Augustinegrass variety ‘Classic’, trifloxysulfuron (TSS) (Monument 75 WDG) was applied at 28 g ai/ha with and without metcamifen applied at 30, 75 and 150 g ai/ha. Two applications were applied on a 30-day interval (initial treatment and second treatment).

Row | Structure (SMILES) | trifloxysulfuron safening (kikuyugrass; TSS-MET mixture at 28 g ai/ha TSS) | injury at all rating dates ([1]; TSS 28 g ai/ha with metcamifen at 30, 75 and 150 g ai/ha, all rating dates) | trifloxysulfuron safening ([1]; metcamifen 30, 75 and 150 g ai/ha with TSS 28 g ai/ha) | injury, 7DAA-2 (kikuyugrass; 28 g ai/ha TSS, 7 days after application 2) [a %] | injury, 14DAA-1 (kikuyugrass; 28 g ai/ha TSS, 14 days after application 1) [a %] | injury, 14 DAA-2 (kikuyugrass; 28 g ai/ha TSS, 14 days after application 2) [a %] | injury, 21 DAA-1 (kikuyugrass; 28 g ai/ha TSS, 21 days after application 1) [a %] | injury, 21 DAA-2 (kikuyugrass; 28 g ai/ha TSS, 21 days after application 2) [a %] | injury, 28 DAA-1 (kikuyugrass; 28 g ai/ha TSS, 28 days after application 1) [a %] | injury, 28 DAA-2 (kikuyugrass; 28 g ai/ha TSS, 28 days after application 2) [a %] | injury (kikuyugrass; trifloxysulfuron solo 28 g ai/ha, two applications on a 28-day interval) [%] | injury, 9 DAIT (Initial Treatment) ([1]; TSS 28 g ai/ha, 9 days after the initial application) [%] | injury, 17 DAIT ([1]; TSS 28 g ai/ha, 17 days after the initial application) [%] | injury, 24 DAIT ([1]; TSS 28 g ai/ha, 24 days after the initial application) [%] | injury, 30 DAIT (Second Treatment) ([1]; TSS 28 g ai/ha, 30 days after the initial application) [%] | injury, 41 DAIT ([1]; TSS 28 g ai/ha, two applications, 30-day interval, 41 days after the initial application) [%] | injury, 51 DAIT ([1]; TSS 28 g ai/ha, two applications, 30-day interval, 51 days after the initial application) [%]
1 | CNC(=O)Nc1ccc(S(=O)(=O)NC(=O)c2ccccc2OC)cc1 [Metcamifen, 2-Methoxy-N-[[4-[[(methylamino)carbonyl]amino]phenyl]sulfonyl]benzamide] | almost complete trifloxysulfuron safening | Less than 5% | almost complete trifloxysulfuron safening |  |  |  |  |  |  |  |  |  |  |  |  |  | 
2 | COc1cc(OC)nc(NC(=O)NS(=O)(=O)c2ncccc2OCC(F)(F)F)n1 [TSS (Monument), N-[[(4,6-dimethoxy-2-pyrimidinyl)amino]carbonyl]-3-(2,2,2-trifluoroethoxy)-2-pyridinesulfonamide] |  |  |  | 40 | 22.5 | 40 | 37.4 | 40 | 34.9 | 32.5 | 40 | 71 | 85 | 98 | 85 | 80 | 81

Source: patent US20250338850A1, “COMPOSITION AND METHOD FOR CONTROLLING WEEDS IN TURFGRASS” (SYNGENTA CROP PROTECTION AG, priority 2022, published 2025)
